Where two headings read alike, the source gives them in different places.
Legend:
[1] = system: HepG2; assay: Modified MTT cytotoxicity assay, HepG2; assay type: cell-based, Human; conditions: for IC50: Homo sapiens; for SI (selectivity index) HepG2: quotient of IC50 for normal (LO2) and malignant (HepG2) cells
Method in brief: (§1)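 HepG2 grown in DMEM, SMMC-7721 and LO2 in RPMI 1640, each with 10% FBS; ~8 × 10^3 cells/well. Compounds at 0.3125-10 μg/mL for 24 h at 37 °C, then MTT for 4 h. IC50 as mean of three replicates.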

[2] = Modified MTT cytotoxicity assay, normal heptical cell line LO2; assay type: cell-based, human; conditions: human, LO2 cells (normal hepatic cell line), 24 h incubation
Method in brief: as §1

[3] = system: TNF-α; assay: ELISA of TNF-α release in LPS-stimulated RAW264.7 cells; assay type: cell-based, mouse; conditions: Mus musculus
Method in brief: (§2)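 RAW264.7 cells pretreated 2 h with compound at 5.0 μM (PDTC 30 μM as reference), then stimulated with LPS 1.0 μg/mL for a further 22 h. Secreted TNF-α and IL-6 in the culture media quantified by ELISA.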

[4] = system: IL-6; assay: ELISA of IL-6 release in LPS-stimulated RAW264.7 cells; assay type: cell-based, mouse; conditions: Mus musculus, RAW264.7, BAPs (5 μM) + LPS (1 μg/mL), RAW264.7, ELISA; read-out: Inhibition rate IL-6
Method in brief: as §2

[5] = system: female ICR mice; assay: Acute toxicity study, 14 days intragastric administration; assay type: in vivo; conditions: for Liver tissue morphology, HE staining: intragastric
Experimental: Preliminary safety evaluation of BAP 16 […]
Acute Toxicity Studies: Animal experiments were reviewed and approved by the Binzhou Medical University Experimental Animal Committee. The acute toxicity study was investigated on the six-week-old female ICR mice (n = 30) weighing 18-22 grams (Jinan Pengyue Experimental Animal Breeding Co., Ltd.). Briefly, mice were randomly divided into three groups (n = 10/group) and administrated the BAP 16 or solvent. The three groups of mice were treated with intragastric administration of 300 mg/kg, 600 mg/kg of BAP 16 and vehicle (saline containing 0.5% CMC-Na) each day. The body weight of mice was recorded every day, and the toxicity and death of mice were monitored daily for up to day 14. On day 14, the surviving animals were dissected to observe whether the internal organs had visible tissue changes, and then the livers were taken for formaldehyde fixation, dehydration, embedding, sectioning, and HE staining. The cell images were taken using a light microscopy (Olympus, Tokyo, Japan).
During the 14 days of intragastric administration, the food and water intakes of all three groups […]
eosinophilic changes, and edema (Figure S1).
Figure S1. The morphology of the liver tissues after the photo by HE staining. (A) In the control group, the hepatic lobular cells were normal without edema and degeneration. (B) In the 300 mg/kg […]
nucleus stained deeper. […] (C) […]
smaller and the color of nucleus became deeper. There were obvious eosinophilic changes and […]
(1 picture or pasted object on this page, not shown here)

[6] = system: p-JNK; assay: Western blot, LPS-induced phosphorylation of JNK in RAW264.7 cells; assay type: cell-based, mouse; conditions: RAW264.7, 1.0, 2.0, 4.0 μM, LPS 1.0 μg/mL 30 min
Source text: Primary antibodies (anti-Bax, Abcam, ab32503; anti-Bcl-2, Abcam, ab194583; anti-Cleaved caspase-3, Abcam, ab2302; anti-p65, Cell Signalling Technology, 8242S; anti-p-p65, Cell Signalling Technology, 3033S; anti-IκBα, Cell Signalling Technoligy, 4812S; anti-p-IκBα, Cell Signalling Technology, 2859S; anti-p38, Cell Signalling Technology, 8690S; anti-p-p38, Cell Signalling Technology, 4511S; anti-JNK, Cell Signalling Technology, 9258 T; anti-p-JNK, Santa Cruz Biotechnology, sc-6254; anti-GAPDH, Abcam, ab181602), and goat anti-rabbit IgG/HRP secondary antibodies (Cell Signalling Technology, 98164 s) were purchased and used according to the manufacturer’s instructions. HepG2 cell lines were incubated with different doses of BAP 16 (1.0, 2.0, 4.0 μM) for 24 h (Bax, Cleaved caspase-3, Bcl-2). RAW264.7 cells were incubated with BAP 16 for 1 h, then treated with LPS (1.0 μg/mL) for 30 min. Afterward cell extraction was performed and extracts were used for Western blot analysis. Next, 30 μg protein of cell lysates were separated by 12% SDS-PAGE gel. The proteins were then transferred onto nitrocellulose membranes. […] By using Quantity One software (Bio-Rad), western blotting results were quantified from more than three separate experiments.

[7] = system: A549; assay: Modified MTT cytotoxicity assay, A549
Experimental: To further verify the anti-tumour activity, one human non-small cell lung cancer cell line (A549), one human ovarian cancer cell line (A2780), and one human normal heptical cell line (HHL-5) were screened by BAPs (4–30) using a modified MTT assay (Supporting Information). DOX and curcumin were selected as positive controls.
The optical density (OD) value of each well was measured on a
multi-well plate reader (TECAN, Mӓnnedorf, Switzerland ) at 570 nm.
Every IC 50 value was the average of three replicates.
Doxorubicin (DOX) and Curcumin were used as positive controls.

[8] = mice, intragastric, 300, 600 mg/kg/d, 14 days

O=C1C(=Cc2cccc(C(F)(F)F)c2)CN(S(=O)(=O)c2ccc(C(F)(F)F)cc2)CC1=Cc1cccc(C(F)(F)F)c1 [BAP 16]
IC50 ([1]; HepG2, 24 h, MTT, 24 h incubation, three replicates, read-out: Cytotoxicity IC50 HepG2): ~600 nM
IC50 ([1]; HepG2, average of HepG2 and SMMC-7721, read-out: Cytotoxicity against HCC cells, average): 900 nM
SI value, average ([1]; average of SI for HepG2 and SMMC-7721): 22.3
SI (selectivity index) HepG2 [1]: ca. 29.7
SI (selectivity index) HepG2 ([1]; listed as 16): 29.7
IC50 at 24 h [2]: ~17800 nM
inhibition at 5 µM ([3]; RAW264.7, BAPs (5 μM) + LPS (1 μg/mL), RAW264.7, ELISA, read-out: Inhibition rate TNF-α): ~83.2%
inhibition at 5 µM ([3]; RAW264.7, average of TNF-α and IL-6, 5 μM + LPS, RAW264.7, read-out: Inhibition rates against IL-6 and TNF-α cytokine release, average): 81.2%
inhibition at 5 µM [4]: ~79.2%
Overall toxicity conclusion ([5]; cell and acute toxicity studies together): low overall toxicity
Liver tissue morphology, HE staining ([5]; mice, 300 mg/kg group, day 14): some liver cells became smaller
Liver tissue morphology, HE staining ([5]; mice, 600 mg/kg group, day 14): the cytoplasm of mouse liver was dehydrated seriously
Body weight [5, 8]: increased slightly
Food and water intakes [5, 8]: normal
Toxic reaction observed during administration [5, 8]: no obvious toxic reaction was observed
Liver tissue changes, HE staining ([5]; mice, intragastric, 300, 600 mg/kg/d, day 14): dose-related toxic changes
Expression level of p-JNK [6]: significantly decreased
IC50 ([7]; Homo sapiens, A549, read-out: Cytotoxicity IC50 A549, MTT, non-small cell lung cancer cell line): 430 ± 80 nM
SI (selectivity index) A549 ([7]; quotient of IC50 for normal (HHL-5) and malignant (A549) cells): 14.4
